From ChEMBL document CHEMBL1130905, “Asymmetric synthesis of antimitotic combretadioxolane with potent antitumor activity against multi-drug resistant cells” (Bioorg Med Chem Lett, 1998)

What was measured:
Tubulin [1] = molecular target: T1, Tubulin (Sus scrofa, UniProt P02554+P02550); assay: In vitro tubulin polymerization-inhibitory activity.; assay type: protein assay
PC-12 = assay: Compound was evaluated for in vitro growth inhibition activity against multi drug resistant (MDR) PC-12 cell line.; assay type: functional; settings: Rattus norvegicus
PC-6 = assay: Compound was evaluated for in vitro growth inhibition activity against sensitive PC-6 cell line.; assay type: functional, Rattus norvegicus
Tubulin [2] = molecular target: T1, Tubulin; assay: In vitro tubulin polymerization-inhibitory activity; 4-6; assay type: protein assay

COc1ccc([C@H]2OCO[C@@H]2c2cc(OC)c(OC)c(OC)c2)cc1O
IC50 (Tubulin [1]): > 50000 nM

COc1ccc([C@@H]2OCO[C@H]2c2cc(OC)c(OC)c(OC)c2)cc1O
GI50 (PC-12): 5.19 nM | GI50 (PC-6; Homo sapiens): 5.41 nM | IC50 (Tubulin [2]): 4000 nM

CC[C@]1(O)C[C@H]2CN(CCc3c([nH]c4ccccc34)[C@@](C(=O)OC)(c3cc4c(cc3OC)N(C=O)[C@H]3[C@@](O)(C(=O)OC)[C@H](OC(C)=O)[C@]5(CC)C=CCN6CC[C@]43[C@@H]65)C2)C1 [VINCRISTINE]
GI50 (PC-12): 104 nM | GI50 (PC-6; Homo sapiens): 1.14 nM

CISPLATIN
GI50 (PC-12): 300 nM | GI50 (PC-6; Rattus norvegicus): 563 nM
